Consider 22 compounds from paper PMC10837402, “Unnatural amino acid substitutions to improve in vivo stability and tumor uptake of ^68Ga-labeled GRPR-targeted TacBOMB2 derivatives for cancer imaging with positron emission tomography” (EJNMMI Radiopharmacy and Chemistry, 2024).

Where “and” joins values, the source holds several entries; their conditions need not be identical. Equal entries are not always repeated. Starred links: 1 amine or outer side, 2 acyl side, 3 side chain; linkers in the order of their positions; H or OH if unused. Non-standard residues stand in square brackets, D forms with d. Residues, ends and D or L forms follow the SMILES beside them. *: point of attachment. DOTA = O=C(O)CN1CCN(CC(=O)O)CCN(CC(=O)*)CCN(CC(=O)O)CC1; NMeH = CN[C@@H](Cc1c[nH]cn1)C(=O)O; X1 = O=C(CN1CCC(N[*:1])CC1)[*:2]; Tle = CC(C)(C)[C@H](N)C(=O)O; hSer = N[C@@H](CCO)C(=O)O; Thz = O=C(O)[C@@H]1CSCN1; Abu = CC[C@H](N)C(=O)O; Aib = CC(C)(N)C(=O)O

T1 sequence (P30550 whole entry): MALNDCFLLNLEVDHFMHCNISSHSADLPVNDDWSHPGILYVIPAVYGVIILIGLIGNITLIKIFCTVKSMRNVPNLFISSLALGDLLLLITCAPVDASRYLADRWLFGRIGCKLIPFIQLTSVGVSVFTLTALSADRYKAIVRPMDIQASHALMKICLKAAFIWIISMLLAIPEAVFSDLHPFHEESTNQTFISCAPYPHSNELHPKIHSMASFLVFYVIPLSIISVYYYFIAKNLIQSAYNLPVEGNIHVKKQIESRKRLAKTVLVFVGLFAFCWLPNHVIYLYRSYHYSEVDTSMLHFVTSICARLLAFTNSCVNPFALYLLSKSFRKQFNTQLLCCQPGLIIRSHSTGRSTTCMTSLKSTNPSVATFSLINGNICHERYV

The first assay has as its target T1, GRPR (Homo sapiens, UniProt P30550).
T1 construct: generated using GRPR-expressing PC-3 cells; endogenous in cells; host or cells: PC-3 cells
Description: Fluorometric calcium release assay in PC-3 cells. The format is cell-based. As to conditions: 50 nM ligand. As for the experimental part: The growth medium was removed and replaced with a loading buffer containing a calcium-sensitive dye (FLIPR Calcium 6 assay kit from Molecular Devices, San Jose, CA, USA). After incubated at 37 °C for 30 min, the plates were placed in a FlexStation 3 microplate reader (Molecular Devices). Tested ligands (50 nM) or DPBS (negative control) were added to the cells and the fluorescent signals were acquired for 2 min. Agonistic/antagonistic properties of the tested ligands were determined based on the relative fluorescent unit (RFU = max – min) of their generated fluorescent signals.
In the case of “Ga-DOTA-Pip-D-Phe-Gln-7-F-Trp-Ala-Val-Gly-His-Leu-Thz-NH2 [Ga-LW02021]”, the “Ca^2+ efflux (relative fluorescence units, RFU = max – min)” value is on record as 178 ± 53.7 RFUs.
Consider “Ga-DOTA-Pip-D-Phe-Gln-Trp-Ala-Val-Gly-NMe-His-Leu-Thz-NH2 [Ga-LW01107]”, for which the “Ca^2+ efflux (relative fluorescence units, RFU = max – min)” value is 1,004 ± 32.0 RFUs.
As for `CC(C)C[C@H](NC(=O)[C@H](Cc1c[nH]cn1)N(C)C(=O)CNC(=O)[C@@H](NC(=O)[C@H](C)NC(=O)[C@H](Cc1c[nH]c2ccccc12)NC(=O)[C@H](CCC(N)=O)NC(=O)[C@@H](Cc1ccccc1)NC(=O)CN1CCC(NC(=O)CN2CCN(CC(=O)O)CCN(CC(=O)O)CCN(CC(=O)O)CC2)CC1)C(C)(C)C)C(=O)N1CSC[C@H]1C(N)=O` [Ga-LW01110, Ga-DOTA-Pip-D-Phe-Gln-Trp-Ala-Tle-Gly-NMe-His-Leu-Thz-NH2], the “Ca^2+ efflux (relative fluorescence units, RFU = max – min)” value turned out to be 521 ± 43.7 RFUs.
For the compound `CC(C)C[C@H](NC(=O)[C@H](Cc1c[nH]cn1)N(C)C(=O)CNC(=O)[C@@H](NC(=O)[C@H](C)NC(=O)[C@H](Cc1c[nH]c2c(F)cccc12)NC(=O)[C@H](CCC(N)=O)NC(=O)[C@@H](Cc1ccccc1)NC(=O)CN1CCC(NC(=O)CN2CCN(CC(=O)O)CCN(CC(=O)O)CCN(CC(=O)O)CC2)CC1)C(C)(C)C)C(=O)N1CSC[C@H]1C(N)=O` [Ga-LW02040, Ga-DOTA-Pip-D-Phe-Gln-7-F-Trp-Ala-Tle-Gly-NMe-His-Leu-Thz-NH2], the “Ca^2+ efflux (relative fluorescence units, RFU = max – min)” value stood at 242 ± 44.1 RFUs.
The same measure, in the same setting: under `CC(C)C[C@H](NC(=O)[C@H](Cc1c[nH]cn1)NC(=O)CNC(=O)[C@@H](NC(=O)[C@H](C)NC(=O)[C@H](Cc1c[nH]c2ccccc12)NC(=O)[C@H](CCC(N)=O)NC(=O)[C@@H](Cc1ccccc1)NC(=O)CN1CCC(NC(=O)CN2CCN(CC(=O)O)CCN(CC(=O)O)CCN(CC(=O)O)CC2)CC1)C(C)(C)C)C(=O)N1CSC[C@H]1C(N)=O` [Ga-LW01108, Ga-DOTA-Pip-D-Phe-Gln-Trp-Ala-Tle-Gly-His-Leu-Thz-NH2] stands 549 ± 46.7 RFUs.
Consider bombesin [reference compound], for which the “Ca^2+ efflux (relative fluorescence units, RFU = max – min)” value was 450 ± 136 RFUs.
Turning to `Nc1ncnc2c1ncn2[C@@H]1O[C@H](COP(=O)(O)OP(=O)(O)OP(=O)(O)O)[C@@H](O)[C@H]1O` [ATP, reference compound], the “Ca^2+ efflux (relative fluorescence units, RFU = max – min)” value came to 253 ± 46.5 RFUs.
`CC(C)C[C@H](NC(=O)[C@H](Cc1c[nH]cn1)N(C)C(=O)CNC(=O)[C@@H](NC(=O)[C@H](C)NC(=O)[C@H](Cc1c[nH]c2ccccc12)NC(=O)[C@H](Cc1c[nH]cn1)NC(=O)[C@@H](Cc1ccccc1)NC(=O)CN1CCC(NC(=O)CN2CCN(CC(=O)O)CCN(CC(=O)O)CCN(CC(=O)O)CC2)CC1)C(C)(C)C)C(=O)N1CSC[C@H]1C(N)=O` [Ga-LW01142, Ga-DOTA-Pip-D-Phe-His-Trp-Ala-Tle-Gly-NMe-His-Leu-Thz-NH2] ({DOTA}-[X1][dF]HWA[Tle]G[NMeH]L[Thz]-NH2): the “Ca^2+ efflux (relative fluorescence units, RFU = max – min)” value was 559 ± 96.2 RFUs.
In the case of `Cc1ccc2[nH]cc(C[C@H](NC(=O)[C@H](CCC(N)=O)NC(=O)[C@@H](Cc3ccccc3)NC(=O)CN3CCC(NC(=O)CN4CCN(CC(=O)O)CCN(CC(=O)O)CCN(CC(=O)O)CC4)CC3)C(=O)N[C@@H](C)C(=O)N[C@H](C(=O)NCC(=O)N[C@@H](Cc3c[nH]cn3)C(=O)N[C@@H](CC(C)C)C(=O)N3CSC[C@H]3C(N)=O)C(C)C)c2c1` [Ga-LW02023, Ga-DOTA-Pip-D-Phe-Gln-5-Me-Trp-Ala-Val-Gly-His-Leu-Thz-NH2], the “Ca^2+ efflux (relative fluorescence units, RFU = max – min)” value is recorded as 312 ± 45.9 RFUs.
The same measure, in the same setting: then “[D-Phe^6,Leu-NHEt^13,des-Met^14]Bombesin(6–14) [reference compound]”, with 38.2 ± 7.20 RFUs; and `Cc1[nH]c2ccccc2c1C[C@H](NC(=O)[C@H](CCC(N)=O)NC(=O)[C@@H](Cc1ccccc1)NC(=O)CN1CCC(NC(=O)CN2CCN(CC(=O)O)CCN(CC(=O)O)CCN(CC(=O)O)CC2)CC1)C(=O)N[C@@H](C)C(=O)N[C@H](C(=O)NCC(=O)N[C@@H](Cc1c[nH]cn1)C(=O)N[C@@H](CC(C)C)C(=O)N1CSC[C@H]1C(N)=O)C(C)C` [Ga-LW02025, Ga-DOTA-Pip-D-Phe-Gln-2-Me-Trp-Ala-Val-Gly-His-Leu-Thz-NH2], with 197 ± 50.3 RFUs.

The target in a further assay is T1, GRPR. Description: In vitro competition binding assay using PC-3 cells and [^125I-Tyr^4]Bombesin as the radioligand. As to conditions: PC-3 cells, mean ± SD, n = 3, read-out: GRPR binding affinity (Ki). As for the experimental part: [2022], [2023]; Bratanovic et al. [2022]). The assays were conducted in triplicate with varied concentrations (10 μM to 1 pM) of tested ligands. […] The growth medium was replaced with 400 μL of reaction medium (RPMI 1640 containing 2 mg/mL BSA, and 20 mM HEPES), then the plates were incubated at 37 °C for 60 min. […] Data were analyzed using nonlinear regression with GraphPad (San Diego, CA, USA) Prism 8 software.
Broadly, the Ki is a dissociation constant, usually derived from enzyme kinetics or from competition with a known ligand. In the case of `CC(C)C[C@H](NC(=O)[C@H](Cc1c[nH]cn1)NC(=O)CNC(=O)[C@@H](NC(=O)[C@H](C)NC(=O)[C@H](Cc1c[nH]c2ccccc12)NC(=O)[C@H](CCO)NC(=O)[C@H](N)Cc1ccccc1)C(C)C)C(=O)N1CSC[C@H]1C(N)=O` [LW02030, D-Phe-Hse-Trp-Ala-Val-Gly-His-Leu-Thz-NH2] (H-[dF][hSer]WAVGHL[Thz]-NH2), the inhibitory constant (Ki) was > 150 nM and 196 nM.
Take `CC[C@H](NC(=O)[C@H](C)NC(=O)[C@H](Cc1c[nH]c2ccccc12)NC(=O)[C@H](CCC(N)=O)NC(=O)[C@H](N)Cc1ccccc1)C(=O)NCC(=O)N[C@@H](Cc1c[nH]cn1)C(=O)N[C@@H](CC(C)C)C(=O)N1CSC[C@H]1C(N)=O` [LW01083, D-Phe-Gln-Trp-Ala-2-Abu-Gly-His-Leu-Thz-NH2]: the Ki was > 150 nM and 406 nM.
Consider `CC(C)C[C@H](NC(=O)[C@H](Cc1c[nH]cn1)NC(=O)CNC(=O)[C@@H](NC(=O)[C@H](C)NC(=O)[C@H](Cc1c[nH]c2cc(Cl)ccc12)NC(=O)[C@H](CCC(N)=O)NC(=O)[C@H](N)Cc1ccccc1)C(C)C)C(=O)N1CSC[C@H]1C(N)=O` [LW01137, D-Phe-Gln-6-Cl-Trp-Ala-Val-Gly-His-Leu-Thz-NH2], for which the Ki is > 150 nM and 829 nM.
Same read-out and setting: then `Cc1ccc2c(C[C@H](NC(=O)[C@H](CCC(N)=O)NC(=O)[C@H](N)Cc3ccccc3)C(=O)N[C@@H](C)C(=O)N[C@H](C(=O)NCC(=O)N[C@@H](Cc3c[nH]cn3)C(=O)N[C@@H](CC(C)C)C(=O)N3CSC[C@H]3C(N)=O)C(C)C)c[nH]c2c1` [LW01171, D-Phe-Gln-6-Me-Trp-Ala-Val-Gly-His-Leu-Thz-NH2], with > 150 nM and 1450 nM.
Consider `CC(C)C[C@H](NC(=O)[C@H](Cc1c[nH]cn1)NC(=O)CNC(=O)[C@@H](NC(=O)[C@H](C)NC(=O)[C@H](Cc1c[nH]c2ncccc12)NC(=O)[C@H](CCC(N)=O)NC(=O)[C@H](N)Cc1ccccc1)C(C)C)C(=O)N1CSC[C@H]1C(N)=O` [LW02013, D-Phe-Gln-7-Aza-Trp-Ala-Val-Gly-His-Leu-Thz-NH2], for which the Ki was more than 150 nM.
As for `CC(C)=C(NC(=O)[C@H](C)NC(=O)[C@H](Cc1c[nH]c2ccccc12)NC(=O)[C@H](CCC(N)=O)NC(=O)[C@H](N)Cc1ccccc1)C(=O)NCC(=O)N[C@@H](Cc1c[nH]cn1)C(=O)N[C@@H](CC(C)C)C(=O)N1CSC[C@H]1C(N)=O` [LW02011, D-Phe-Gln-Trp-Ala-2,3-dehydro-Val-Gly-His-Leu-Thz-NH2], the Ki was more than 10000 nM.
For `CC(C)C[C@H](NC(=O)[C@H](Cc1c[nH]cn1)NC(=O)CNC(=O)[C@@H](NC(=O)[C@H](C)NC(=O)[C@H](Cc1c[nH]c2ccccc12)NC(=O)[C@H](CCC(N)=O)NC(=O)[C@H](N)Cc1ccccc1)C1CCC1)C(=O)N1CSC[C@H]1C(N)=O` [LW02019, D-Phe-Gln-Trp-Ala-cyclobutaneacetic acid-Gly-His-Leu-Thz-NH2], the inhibition constant (Ki) was determined as 35.7 ± 27.4 nM.
For the compound `CC(C)C[C@H](NC(=O)[C@H](Cc1c[nH]cn1)NC(=O)CNC(=O)[C@@H](NC(=O)[C@H](C)NC(=O)[C@H]1Cc2c([nH]c3ccccc23)CN1C(=O)[C@H](CCC(N)=O)NC(=O)[C@H](N)Cc1ccccc1)C(C)C)C(=O)N1CSC[C@H]1C(N)=O` [LW01191, D-Phe-Gln-D-Tpi-Ala-Val-Gly-His-Leu-Thz-NH2], the inhibitory constant (Ki) is more than 10000 nM.
The same measure, in the same setting: under `CC(C)C[C@H](NC(=O)[C@H](Cc1c[nH]cn1)NC(=O)CNC(=O)[C@@H](NC(=O)[C@H](C)NC(=O)[C@H](Cc1c[nH]c2ccc(O)cc12)NC(=O)[C@H](CCC(N)=O)NC(=O)[C@H](N)Cc1ccccc1)C(C)C)C(=O)N1CSC[C@H]1C(N)=O` [LW01173, D-Phe-Gln-5-OH-Trp-Ala-Val-Gly-His-Leu-Thz-NH2] stands > 150 nM and 2030 nM; under `CC(C)C[C@H](NC(=O)[C@H](Cc1c[nH]cn1)NC(=O)CNC(=O)[C@@H](NC(=O)C(C)(C)NC(=O)[C@H](Cc1c[nH]c2ccccc12)NC(=O)[C@H](CCC(N)=O)NC(=O)[C@H](N)Cc1ccccc1)C(C)C)C(=O)N1CSC[C@H]1C(N)=O` [LW01075, D-Phe-Gln-Trp-Aib-Val-Gly-His-Leu-Thz-NH2] (H-[dF]QW[Aib]VGHL[Thz]-NH2), > 150 nM and 2410 nM; under `CC[C@H](NC(=O)[C@H](Cc1c[nH]c2ccccc12)NC(=O)[C@H](CCC(N)=O)NC(=O)[C@H](N)Cc1ccccc1)C(=O)N[C@H](C(=O)NCC(=O)N[C@@H](Cc1c[nH]cn1)C(=O)N[C@@H](CC(C)C)C(=O)N1CSC[C@H]1C(N)=O)C(C)C` [LW01078, D-Phe-Gln-Trp-2-Abu-Val-Gly-His-Leu-Thz-NH2] (H-[dF]QW[Abu]VGHL[Thz]-NH2), 27.2 ± 8.62 nM.
